This note sets out measurements from ChEMBL document CHEMBL5104211, “Design and synthesis of bile acid derivatives and their activity against colon cancer” (RSC Med Chem, 2022).

Data set [1] has as its system HCT-116. In words: Induction of apoptosis in human HCT-116 cells assessed as contraction of cell volume at 30 micromol/L incubated for 48 hrs by Giemsa staining based fluorescence microscopy. It is filed as functional. Particulars: dose 30.0 µmol/L.
Data set [2] has as its system Huh-7. In words: Anticancer activity against human Huh-7 cells assessed as inhibition of cell proliferation by MTT assay. The data set is classed as functional, cell-based.
For data set [3], the system named is HCT-116. The data set can be described thus: Anticancer activity against human HCT-116 cells assessed as inhibition of cell proliferation at 5 to 50 micromol/L incubated for 24 hrs by MTT assay. The data set is classed as functional, cell-based. Particulars: dose 5-50 µmol/L, DDE = dose-dependent effect.
The test system of data set [4] is HCT-116. The data set can be described thus: […] activity in human HCT-116 cells assessed as downregulation of Bcl-2 level at 30 micromol/L incubated for 48 hrs by Western blot analysis. The data set is classed as functional, cell-based. Particulars: dose 30.0 µmol/L.
Data set [5] has as its system HCT-116. In words: Induction of apoptosis in human HCT-116 cells assessed as apoptotic body formation at 30 micromol/L incubated for 48 hrs by Giemsa staining based fluorescence microscopy. The data set is classed as functional, cell-based. To be noted: dose 30.0 µmol/L.
The test system of data set [6] is HCT-116. The data set can be described thus: Anticancer activity against human HCT-116 cells assessed as inhibition of cell proliferation at 25 micromol/L incubated for 24 hrs by MTT assay. It is filed as functional. To be noted: HCT-116, 24 h, dose 25 µmol/L.
The test system of data set [7] is HCT-116. The data set can be described thus: Anticancer activity against human HCT-116 cells assessed as decrease in size of colonies at 25 micromol/L and measured after 48 hrs by crystal violet dye based colony formation assay. The data set is classed as functional, cell-based. To be noted: dose 25.0 µmol/L.
The test system of data set [8] is HCT-116. The data set can be described thus: Inhibition of cell invasion in human HCT-116 cells at 20 micromol/L and measured after 24 hrs by crystal violet staining based transwell assay. The data set is classed as functional. Particulars: HCT-116, 24 h, dose 20 µmol/L.
Data set [9] deals with HCT-116. In words: Induction of ROS generation in human HCT-116 cells assessed as increase in intracellular ROS level incubated for 48 hrs by DCFH-DA staining based flow cytometric analysis (Rvb=73.65%). The data set is classed as functional.
Data set [10] concerns HCT-116. In words: Induction of apoptosis in human HCT-116 cells assessed as retraction of the nucleus at 30 micromol/L incubated for 48 hrs by Giemsa staining based fluorescence microscopy. It is filed as functional, cell-based. To be noted: dose 30.0 µmol/L.
The test system of data set [11] is HCT-116. The data set can be described thus: Induction of apoptosis in human HCT-116 cells assessed as unclear cell rupture edges at 30 micromol/L incubated for 48 hrs by Giemsa staining based fluorescence microscopy. To be noted: dose 30.0 µmol/L. The data set is classed as functional.
Data set [12] deals with HCT-116. The data set can be described thus: […] activity in human HCT-116 cells assessed as upregulation of cleaved caspase-3 level at 30 micromol/L incubated for 48 hrs by Western blot analysis. The data set is classed as functional, cell-based. Particulars: dose 30.0 µmol/L.
The test system of data set [13] is HCT-116. In words: Anticancer activity in human HCT-116 cells assessed as downregulation of phosphorylated STAT3 level at 30 micromol/L incubated for 48 hrs by Western blot analysis. The data set is classed as functional, cell-based. Particulars: dose 30.0 µmol/L.
Data set [14] relates to HT-29. In words: Anticancer activity against human HT-29 cells assessed as inhibition of cell proliferation by MTT assay. It is filed as functional, cell-based.
In data set [15] the test system is HCT-116. The data set can be described thus: Anticancer activity against human HCT-116 cells assessed as inhibition of cell proliferation at 30 micromol/L incubated for 24 hrs by MTT assay. Particulars: HCT-116, 24 h, dose 30 µmol/L. The data set is classed as functional.
For data set [16], the system named is HCT-116. The data set can be described thus: Anticancer activity against human HCT-116 cells assessed as decrease in number of colonies at 25 micromol/L and measured after 48 hrs by crystal violet dye based colony formation assay. It is filed as functional, cell-based. To be noted: dose 25.0 µmol/L.
For data set [17], the system named is SW480. In words: Anticancer activity against human SW480 cells assessed as inhibition of cell proliferation by MTT assay. It is filed as functional, cell-based.
The subject of data set [18] is HCT-116. The data set can be described thus: Inhibition of cell migration in human HCT-116 cells at 20 micromol/L and measured after 24 hrs by crystal violet staining based transwell assay. It is filed as functional. To be noted: dose 20.0 µmol/L.
Data set [19] relates to RKO. The data set can be described thus: Anticancer activity against human RKO cells assessed as inhibition of cell proliferation by MTT assay. It is filed as functional, cell-based.
The test system of data set [20] is HCT-116. In words: Induction of cell cycle arrest in human HCT-116 cells assessed as accumulation G2/M phase at 25 micromol/L and measured after 48 hrs by propidium iodide staining based flow cytometry analysis (Rvb= 11%). The data set is classed as functional. Particulars: dose 25 µmol/L, at 25 µM.
In data set [21] the test system is HCT-116. The data set can be described thus: Induction of apoptosis in human HCT-116 cells assessed as necrotic cells at 30 micromol/L incubated for 48 hrs by annexin V-FITC and propidium iodide staining based flow cytometry analysis (reference value: 0.88%). The data set is classed as functional. Particulars: dose 30 µmol/L, at 30 µM.
Data set [22] can be described thus: Cytotoxicity against human WI-38 cells assessed as inhibition of cell proliferation by MTT assay. It is filed as toxicity, cell-based.
The subject of data set [23] is HCT-116. In words: Anticancer activity against human HCT-116 cells assessed as inhibition of cell proliferation at 20 to 40 micromol/L incubated for 24 to 72 hrs by MTT assay. The data set is classed as functional, cell-based. Particulars: dose 20-40 µmol/L, time 24-72 hrs, TDE = time-dependent effect.
In data set [24] the test system is HCT-116. In words: Induction of apoptosis in human HCT-116 cells assessed as viable cells at 30 micromol/L incubated for 48 hrs by annexin V-FITC and propidium iodide staining based flow cytometry analysis (reference value: 89.29%). The data set is classed as functional. To be noted: HCT-116, 48 h, dose 30 µmol/L, read-out: Activity.
The test system of data set [25] is SK-HEP1. The data set can be described thus: Anticancer activity against human SK-HEP1 cells assessed as inhibition of cell proliferation by MTT assay. The data set is classed as functional, cell-based.
Data set [26] has as its system HCT-116. In words: Anticancer activity against human HCT-116 cells assessed as inhibition of cell proliferation by MTT assay. It is filed as functional, cell-based.
Data set [27] relates to HCT-116. In words: Induction of mitochondrial membrane potential loss in human HCT-116 cells and measured after 48 hrs by TRME staining based flow cytometric analysis (reference value: 97.52%). The data set is classed as functional.
Data set [28] relates to HCT-116. The data set can be described thus: Induction of apoptosis in human HCT-116 cells assessed as late apoptotic cells at 30 micromol/L incubated for 48 hrs by annexin V-FITC and propidium iodide staining based flow cytometry analysis (reference value: 7.13%). The data set is classed as functional. Particulars: dose 30 µmol/L, at 30 µM.
In data set [29] the test system is HCT-116. In words: Induction of apoptosis in human HCT-116 cells assessed as retraction of the cytoplasm at 30 micromol/L incubated for 48 hrs by Giemsa staining based fluorescence microscopy. The data set is classed as functional, cell-based. To be noted: dose 30.0 µmol/L.
For data set [30], the system named is HCT-116. In words: Induction of apoptosis in human HCT-116 cells assessed as early apoptotic cells at 30 micromol/L incubated for 48 hrs by annexin V-FITC and propidium iodide staining based flow cytometry analysis (reference value: 2.69%). To be noted: dose 30 µmol/L, at 30 µM. The data set is classed as functional.
Data set [31] relates to A549. In words: Anticancer activity against human A549 cells assessed as inhibition of cell proliferation by MTT assay. The data set is classed as functional, cell-based.
In data set [32] the test system is LoVo. In words: Anticancer activity against human LoVo cells assessed as inhibition of cell proliferation by MTT assay. The data set is classed as functional, cell-based.
The test system of data set [33] is MGC-803. The data set can be described thus: Anticancer activity against human MGC-803 cells assessed as inhibition of cell proliferation by MTT assay. The data set is classed as functional, cell-based.
Data set [34] deals with RAW264.7. In words: Anti-inflammatory activity against mouse RAW264.7 cells assessed as inhibition of LPS-induced NO production at 10 micromol/L incubated for 24 hrs in presence of LPS by Griess reagent-based assay. Particulars: RAW264.7, 24 h, dose 10 µmol/L. It is filed as functional.
The test system of data set [35] is RAW264.7. The data set can be described thus: Anti-inflammatory activity against mouse RAW264.7 cells assessed as downregulation of LPS-induced TNF-alpha level at 10 to 25 micromol/L incubated for 24 hrs in presence of LPS by ELISA. Particulars: dose 10-25 µmol/L, DDE = dose-dependent effect. The data set is classed as functional, cell-based.
Data set [36] has as its system RAW264.7. The data set can be described thus: Anti-inflammatory activity against mouse RAW264.7 cells assessed as inhibition of LPS-induced NO production at 25 micromol/L incubated for 24 hrs in presence of LPS by Griess reagent-based assay. It is filed as functional. To be noted: RAW264.7, 24 h, dose 25 µmol/L.
Data set [37] relates to RAW264.7. The data set can be described thus: Anti-inflammatory activity against mouse RAW264.7 cells assessed as inhibition of LPS-induced NO production incubated for 24 hrs in presence of LPS by Griess reagent-based assay. The data set is classed as functional, cell-based. Particulars: RAW264.7, 24 h.
Data set [38] concerns RAW264.7. In words: Anti-inflammatory activity against mouse RAW264.7 cells assessed as downregulation of LPS-induced TNF-alpha level at 25 micromol/L incubated for 24 hrs in presence of LPS by ELISA. The data set is classed as functional. To be noted: dose 25 µmol/L, at 25 µM.

Structures are written as SMILES. Activity calls are given as the source filed them. No cut-off for these calls is given here. Bounds are passed on as bounds.

Take `COC(=O)[C@H](CCSC)NC(=O)CC[C@@H](C)[C@H]1CC[C@H]2[C@@H]3[C@H](O)C[C@@H]4C[C@H](O)CC[C@]4(C)[C@H]3CC[C@]12C`: the outcome in data set [1], in data set [4], in [5], in [7], in data set [10] and in [11] was Active. The outcome in data set [12], in data set [13], in data set [16] and in data set [29] was Active. In addition, the IC50 in data set [2] was 68 µM; in [14], 27.3 µM; in data set [17], 23.6 µM; in [19], 27.3 µM; in [22], over 500 µM; in data set [25] it was 38.6 µM. Further, the IC50 in data set [26] came to 27.4 µM; in data set [31], 79.8 µM; in [32] it was 22.8 µM; in data set [33], 31.5 µM. For the same compound, the inhibition entry in [3] is “Dde”; in data set [23] it was “Tde”. Moreover, the inhibition at 25 µM in data set [6] came out at 30%. Besides, at 20 µM the inhibition in data set [8] was 50%. For the same compound, the Activity was determined as 86.51% in data set [9]; 72.91% in data set [20]; 0.71% in data set [21]; 79.54% in [27]; 52.35% in data set [28]; 3.86% in [30]. Besides, the inhibition at 30 µM in data set [15] is 70%. Also, in data set [18], the inhibition result is “Active”. In addition, the viability at 30 µM in data set [24] turned out to be 43.1%.

Turning to `C[C@H](CCC(=O)OCc1cc(O)cc(O)c1)[C@H]1CC[C@H]2[C@@H]3[C@H](O)C[C@@H]4C[C@H](O)CC[C@]4(C)[C@H]3CC[C@]12C`, the inhibition at 10 µM in data set [34] came out at 35.5%. In addition, the IC50 in [2] was 116 µM; in data set [14] it was 40.9 µM; in data set [17] it was 69.4 µM; in [19], 76.9 µM; in data set [22], over 200 µM; in data set [37], 16.3 µM. The half-maximal inhibitory concentration (IC50) in data set [25] was 156 µM; in data set [26], 64.5 µM; in [31], 127 µM; in [32], 56.7 µM; in [33] it was 81.8 µM. The Activity result in data set [35] is “Dde”. Moreover, in [36], the inhibition at 25 µM was found to be 73.2%.

As for `C[C@H](CCC(=O)OCc1cc(O)cc(O)c1)[C@H]1CC[C@H]2[C@@H]3CC[C@@H]4C[C@H](O)CC[C@]4(C)[C@H]3CC[C@]12C`, in data set [34], the inhibition at 10 µM is 49%. Besides, the IC50 in [2] was over 200 µM; in data set [14] it was 45.4 µM; in data set [17] it was 134 µM; in data set [19], 42.9 µM; in [22] it was over 200 µM; in data set [37] it was 12.1 µM. Also, the half-maximal inhibitory concentration (IC50) in data set [25] is over 200 µM; in data set [26], 50.3 µM; in data set [31] it was 124 µM; in [32], 59.8 µM; in data set [33] it was 82.3 µM. Moreover, the inhibition at 25 µM in data set [36] amounted to 82.1%. Moreover, in [38], the Activity is 50%.
